Key:
[1] = system: plasmodial surface anion channel (PSAC); assay type: cell-based, Plasmodium falciparum; conditions: for concentration to inhibit proline transport versus hydroxyproline transport: data not shown
[2] = system: plasmodial surface anion channel (PSAC); conditions: compared with sorbitol and alanine transport; ref Lisk et al. 2007; cited from earlier work

Compound: O=C(O)c1cc([N+](=O)[O-])ccc1NCCCc1ccccc1 [NPPB]
- hydroxyproline uptake (osmotic lysis over 90 min) ([1]; 10 μM NPPB): abolished
- proline-mediated lysis ([1]; 10 μM NPPB): slowed but not abolished
- higher inhibitor concentration required to comparably reduce proline uptake ([1]; relative to the concentration that abolishes hydroxyproline uptake): 10 fold

Compound: O=C1CN(/N=C/c2ccc(-c3ccc([N+](=O)[O-])cc3)o2)C(O)=N1 [Dantrolene]
- concentration to inhibit proline transport versus hydroxyproline transport [1]: required higher concentrations

Compound: COc1ccc(Cl)cc1C(=O)NCCc1ccc(S(=O)(=O)NC(=O)NC2CCCCC2)cc1 [glybenclamide]
- concentration to inhibit proline transport versus hydroxyproline transport [1]: required higher concentrations

Compound: O=C(CCc1ccc(O)cc1)c1c(O)cc(O)cc1O[C@@H]1O[C@H](CO)[C@@H](O)[C@H](O)[C@H]1O [phloridzin]
- inhibition of PhTMA-Cl and isoleucine transport [2]: less effectively inhibited

Reference: publication PMC2676941 (The Journal of membrane biology, 2008)
